Measured values reported in BindingDB's records for doi:10.1016/j.bioorg.2016.01.001 (Indian Institute of Integrative Medicine, 2016).

Each compound was assayed against T1, Tyrosinase (Mus musculus, UniProt P11344) (assay: Tyrosinase Activity). Details: pH 6.8.
T1 sequence (P11344 whole entry): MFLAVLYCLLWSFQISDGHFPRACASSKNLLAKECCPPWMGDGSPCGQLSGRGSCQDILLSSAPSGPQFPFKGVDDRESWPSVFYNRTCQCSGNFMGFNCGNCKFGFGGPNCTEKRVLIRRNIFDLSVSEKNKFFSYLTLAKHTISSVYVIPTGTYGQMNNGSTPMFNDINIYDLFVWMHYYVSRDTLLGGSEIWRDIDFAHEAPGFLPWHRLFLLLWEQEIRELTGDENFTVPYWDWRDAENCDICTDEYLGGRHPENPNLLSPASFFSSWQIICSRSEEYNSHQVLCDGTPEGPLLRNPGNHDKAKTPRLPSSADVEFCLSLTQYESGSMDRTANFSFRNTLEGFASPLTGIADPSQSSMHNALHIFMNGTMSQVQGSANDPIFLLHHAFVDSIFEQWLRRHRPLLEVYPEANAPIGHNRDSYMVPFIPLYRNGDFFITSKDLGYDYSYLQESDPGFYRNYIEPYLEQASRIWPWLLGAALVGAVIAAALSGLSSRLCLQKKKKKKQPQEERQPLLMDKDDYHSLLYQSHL
Method: The reaction mixture contained 50 mM phosphate buffer, pH 6.8, 0.05% L-DOPA and the supernatant (tyrosinase). After incubation in the absence or presence of various stilbene derivatives (with varying concentrations ranging from 1 µg/mL to 100 µg/mL) at 37 °C for 20 min, dopachrome was monitored by measuring absorbanceat wavelength 492 nm by using a Molecular Devices microplate reader.

IC50 [µM]	SMILES
> 500	CC(=O)Oc1ccc(C=Cc2ccccc2)cc1 [Trans-Acetic acid 4-styryl-phenyl ester (7)]
> 500	COC(=O)/C(=C/c1ccc(O)c(OC)c1)c1ccc(OC)cc1 [(E)-Methyl-3-(4-hydroxy-3-methoxyphenyl)-2-(4-methoxyphenyl)acrylate (19)]
276	COc1ccc(/C=C(/C=O)c2ccccc2)cc1 [(E)-3-(4-Methoxyphenyl)-2-phenylpropenal (20)]
50	COc1ccc(/C=C\c2ccc(F)cc2)cc1 [Trans-1-fluoro-4-(4-methoxystyryl)benzene (10)]
5.06	N#C/C(=C/c1ccc(O)cc1)c1ccc(O)cc1 [(E)-2,3-bis(4-Hydroxyphenyl)acrylonitrile (21)]
433	COc1ccc(/C=C\c2ccccc2)cc1 [Trans-1-Methoxy-4-styryl-benzene (9)]

Continued, compound first:

SMILES	IC50 [µM]
O=[N+]([O-])c1ccc(/C=C\c2ccccc2)cc1 [Trans-1-Nitro-4-styrylbenzene (5)]	361
N#Cc1ccc(/C=C\c2ccccc2)cc1 [Trans-4-Styrylbenzonitrile (6)]	50
COc1ccc(/C=C\c2ccccc2)cc1Br [Trans-2-Bromo-1-methoxy-4-styryl-benzene (11)]	56.2
Fc1ccc(/C=C\c2ccccc2)cc1 [Trans-1-Fluoro-4-styryl-benzene (2)]	79.4
Fc1c(F)c(F)c(/C=C\c2ccccc2)c(F)c1F [Trans-1,2,3,4,5-Pentafluoro-6-styryl-benzene (14)]	> 500
Brc1ccc(/C=C\c2ccccc2)cc1 [Trans-1-Bromo-4-styrylbenzene (4)]	277
Oc1ccc(/C=C\c2ccccc2)cc1 [Trans-4-Styryl-phenol (8)]	17.4
COc1ccc(/C=C\c2cc(OC)c(OC)c(OC)c2)cc1 [1,2,3-Trimethoxy-5-[(Z)-2-(4-methoxy-phenyl)-vinyl]-benzene]	> 500
N#C/C(=C/c1cccnc1)c1ccc(O)cc1 [(E)-2-(4-Hydroxyphenyl)-3-(pyridin-3-yl)acrylonitrile (22)]	270
C(=C\c1ccccc1)/c1ccccc1 [Trans-1,2-Diphenylethene (1)]	> 500
Clc1ccc(/C=C\c2ccccc2)cc1 [Trans-1-Chloro-4-styrylbenzene (3)]	320
C(=C/c1c2ccccc2cc2ccccc12)/c1ccccc1 [Trans-9-Styryl-anthracene (15)]	166
Fc1cc(F)cc(/C=C\c2ccccc2)c1 [Trans-1,3-Difluoro-5-styrylbenzene (12)]	394
Oc1ccc(/C=C/c2cc(O)cc(O)c2)cc1 [5-[(E)-2-(4-hydroxyphenyl)ethenyl]benzene-1,3-diol]	10.8
